Measurements reported in patent publication US11766434B2, “Pyrimidinone derivatives as CDC7 inhibitors” (Cancer Research Technology Limited, priority 2016, dated 2023).

Experiments:
Cdc7/Dbf4 = Cdc7/Dbf4 (Homo sapiens, UniProt O00311); assay: Cdc7 biochemical assay Method 2: Cdc7/Dbf4 Enzyme TR-FRET Assay measuring pS40MCM2; conditions: pS40 MCM2 peptide, 1 μM ATP, 25° C., 120 minutes, read-out: Biochemical Method 2 (pIC50) (converted)
Description: This protocol describes a method for assaying a compounds' ability to inhibit Cdc7 activity by measuring pS40MCM2 levels in a Cdc7/Dbf4 Enzyme TR-FRET Assay.
2.5 nM Cdc7/Dbf4 was incubated with 100 nM of biotin-labelled peptide 35-TDALTS(pS)PGRDLP in the presence of 1 μM ATP at 25° C. for 120 minutes. The phosphorylation of the peptide was detected using TR-FRET. Anti-Mcm2 (pS40) antibody, Terbium anti-rabbit secondary antibody and Streptavidin-Alexa Fluor488 form the detection system.

Cdc7/ASK = Cdc7/ASK (Homo sapiens, UniProt O00311); assay: Cdc7 biochemical assay Method 1: 384 well ELISA, MCM2 whole protein substrate, Phospho MCM2 (S53) antibody; parameters: purchased; conditions: ATP 2 μM, 90 minutes, read-out: Biochemical method 1 (pIC50) (converted)
Description: This protocol describes a method for assaying Cdc7/ASK for activity. The assay is a 384 well ELISA assay, utilising a whole protein substrate (MCM2) and an antibody against Phospho MCM2 (S53). This site is thought to be specific to Cdc7/ASK phosphorylation and the assay has been validated using knockout mutants.
• TBS: 25 mM Tris pH 7.2, 150 mM NaCl. (Dilute 10× stock by 1:10). • Wash Buffer: TBS+0.05% Tween 20. (Add 100 mL 1 M Tris pH 7.2, 120 mL 5 M NaCl and 2 mL 100% Tween 20 per 4 L). • Kinase Reaction Buffer: 50 mM Tris-HCl pH 8.5, 10 mM MgCl2, 1 mM DTT. (Dilute 10× stock by 1:10 and add 100 μL 1M DTT per 100 mL prior to assay). • Diethanolamine Buffer: 1 M diethanolamine pH 9.8, 0.5 mM MgCl2. • Stop Solution: 1 M NaOH. • MCM2 was expressed and purified in-house and used in the assay at a final assay concentration of 436 ng/well. • Cdc7/ASK is purchased from commercial suppliers and used in the assay at a final assay concentration of 37.97 ng/well or 20.63 nM. • ATP used as a final assay concentration of 2 μM. • Primary Antibody: Rabbit anti-Phospho MCM2 (S53 Antibody (BL3353)), is purchased from commercial suppliers at 0.2 mg/mL and used at a final assay concentration by diluting 1:800 in TBS. • Secondary Antibody: Anti-Rabbit/AP Antibody is supplied is purchased from commercial suppliers at 1 mg/mL and used at a final assay concentration by diluting 1:2000 in TBS. • Development Reagent: Dissolve one 20 mg PNPP tablet (Sigma, product N2765, 20 mg per tablet) per 20 mL diethanolamine Buffer (or one 5 mg PNPP tablet per 5 mL diethanolamine buffer). Cover in foil and leave shaking on a roller shaker at room temperature for up to an hour to dissolve. Methods • 1. Add 20 μL 1× working stock of Substrate (MCM2) in TBS to all wells of a clear, 384 well, Nickel-chelate microplate to give a final concentration of 250 ng/well. Incubate at room temperature for at least 1 hour. Plates can be pre-coated for 1 hour and stored at 4° C. for up to 8 days. • 2. Wash with TBS+0.05% Tween 20 (80 μL x 3). • 3. Add 2 μL 10× test compounds, including the positive control, in 40% DMSO/water to ‘test’ wells. Add 2 μL 40% DMSO/water to ‘control’ and ‘blank’ wells. The final DMSO concentration will be 4%. • 4. Add 13 μL CDCl7/ASK Kinase (1.5× stock) in Kinase Reaction Buffer to ‘test’ and ‘control’ wells to give a final concentration of […]. Add 13 μL Kinase Reaction Buffer to ‘blank’ wells. • 5. Add 5 μL ATP (4× stock) in Kinase Reaction Buffer to all wells to give a final concentration of 2 μM. • 6. Incubate at room temperature for 90 minutes. • 7. Wash with TBS+0.05% Tween 20 (80 μL x 3). • 8. Add 20 μL 1× working solution of Primary Antibody in TBS to all wells. Incubate at room temperature for 30 minutes. • 9. Wash with TBS+0.05% Tween 20 (80 μL x 3). • 10. Add 20 μL 1× working solution of Secondary Antibody in TBS to all wells. Incubate at room temperature for 30 minutes. • 11. Wash with TBS+0.05% Tween 20 (80 μL x 3). • 12. Add 20 μL 1× Development Reagent to all wells. • 13. Incubate at room temperature for 2 hours. Stop the reaction by adding 20 μL Stop Solution to all wells and record Absorbance on a Pherastar plate reader.
Percentage inhibition values were calculated from absorbance values, using the no compound (DMSO) and no enzyme control values as 0% and 100% inhibition, respectively. IC50 determination was performed with ExcelFit software (IDBS) using curve fit 205. Z′ factors were determined for each plate tested and were all above 0.5.

Cdc7 [1] = molecular target: T1, Cdc7 (Homo sapiens, UniProt O00311); assay: Cdc7 cell pharmacodynamics assay Method 1: pS53MCM2 levels in HCT116 cells; assay type: cell-based; parameters: endogenous in cells; conditions: 6 hours treatment, read-out: Biomarker Method 1 (pEC50) (converted)
Text: This protocol describes a method to investigate the inhibition of Cdc7 activity of compounds by measuring pS53MCM2 levels in cells after treatment.
• HCT116 cells (wild type P53 positive) • McCoys 5A media (PAA Laboratories Ltd, E15-022) • 10% FCS (Sera Laboratories International Ltd, EU000F Batch: 108005) • 100× L-Glutamine (Invitrogen, 25030-024) • D-PBS without CaCl2 and MgCl2 (Invitrogen, ref. 14190-094) • Trypsin/EDTA (Invitrogen 25300-054) • 2% BSA in PBS • Cell Extraction Buffer (Invitrogen FNN0011) • Protease inhibitor cocktail (Sigma P-2714) • PMSF 0.3M stock in DMSO (Sigma P7626) • Antibody—rabbit pMCM2 Ser53 (Bethyl #A300-756A) • Antibody—goat MCM2 (Bethyl #A300-122A) • Antibody—goat Anti Rabbit IgG HRP (Perbio Science UK Ltd 31462) • 1×PBS • FACE Wash buffer (0.02% Triton X100 in 1×PBS) • SuperSignal ELISA Pico Chemiluminescent Substrate (Perbio Science UK Ltd 37070) Method • 72 hours prior to the start of the experiment plate 1×10^6 HCT116 cells in a 150 cm^2 flask in complete McCoys 5A media (+10% FCS+1× L-glutamine). • Plate 20,000 HCT116 cells per well in standard TC treated 96 well plate in 100 μL complete McCoys 5A media. • Allow cells to settle overnight in incubator set at 37° C. and 5% CO2. • Remove intermediate plate from fridge and place at 37° C. overnight to allow to equilibrate. • Cell treatment: cell assay plate 100 μL; daughter to cell transfer volume 3.33 μL; daughter volume 45 μL; mother plate to daughter volume 5 μL. • Once all cells are treated remove the cells to the incubator and incubate for 6 hours. • Dilute the capture antibody (total MCM2 #A300-122A) 1 in 250 in the required volume of PBS (5 mL per assay plate) and add 50 μL to each well of a Hybond plate excluding wells 12E to 12H. In these wells add 50 μL PBS. Seal the plate and incubate at room temperature fora minimum of 2 hours. • Defrost aliquot of Invitrogen Cell Extraction Buffer (FNN0011) on ice and supplement with appropriate volume of both Sigma protease inhibitor cocktail (P-2714) and PMSF (final cone 1 mM from a […] in DMSO). • After the 6 hour cell treatment time tap out the media from the assay plates and place them in the −70° C. freezer for at least 5 minutes. • Remove plates from freezer and add 20 μL of ice cold complete lysis buffer on ice. Incubate cells for 30 minutes at 4° C. • Add 80 μL per well 2% BSA. • Transfer 80 μL from the lysis plate to the same wells in the capture/ELISA plate. Cover with plate seal and incubate plates overnight at 4° C. • Wash plates with PBS, remove any residual remaining liquid and add 50 μL per well of pMCM2 Ser53 antibody (#A300-756A) diluted 1 in 100 in 2% BSA. Cover plate and incubate at room temperature for 2 hours with gentle shaking. • Wash plates with PBS, remove any residual remaining liquid and Incubate with 50 μL goat anti rabbit antibody (1 in 800 dilution in 2% BSA) for 1 hour at room temperature. • Wash plates with PBS, remove any residual remaining liquid and add 50 μL mixed SuperSignal Pico substrate. • Incubate each plate for 5 minutes at room temperature shielding the plates from direct light (with a cover plate). Read plates with the luminescent detection. Method 2

Cdc7 [2] = molecular target: T1, Cdc7; assay: Cdc7 cell pharmacodynamics assay Method 2: pS40MCM2 levels in HCT116 cells; assay type: cell-based; parameters: endogenous in cells; conditions: 18 hours treatment, read-out: Biomarker Method 2 (pEC50) (converted)
Text: This protocol describes a method to investigate the inhibition of Cdc7 activity by measuring pS40MCM2 levels in cells, after treatment with compounds.
• HCT116 cells (ATCC, #CCL-247) • McCoys 5A with L-glutamine (Cellgro, #10-050-CV) • 10% FCS (Cellgro, #35-010-CV) • D-PBS without CaCl2 and MgCl2 (Cellgro, #21-031-CV) • Trypsin/EDTA (Cellgro, #25-052-CL) • BSA (Calbiochem, 126593) • Cell Extraction Buffer (Invitrogen FNN0011) • Protease inhibitor cocktail (Sigma P-2714) • PMSF 0.3M stock in DMSO (Sigma P7626) • Antibody—rabbit pMCM2 Ser40 (Abeam, AB133243) • Antibody—goat MCM2 (Bethyl #A300-122A) • Antibody—goat Anti Rabbit IgG HRP (Thermo, 31462) • SuperSignal ELISA Pico Chemiluminescent Substrate (Perbio Science UK Ltd 37069) • 10×PBS (Growcells, MRGF-6236) • Triton X100 (Sigma, P-T8787) • DMSO (Fisher, D128-1) • 2-Propanol (J. T. Baker, 9095-03) Method • Seed 1×10^6 HCT116 cells into each of two 175 cm^2 flask containing 30 mL Cell Growth Media and incubate at 37° C., 5% CO2 for 3 days. • Harvest the cells from one T175 cm^2 flask and count. • Dilute with Cell Growth Media to a cell density of 2×10^5. Dispense 100 μL to each well (20,000 HCT116 cells/well) of TC treated 96-well plate(s). • Allow cells to settle overnight in incubator set at 37° C. and 5% CO2. • Cell treatment: Transfer 0.25 μL/well from the compound plate to the wells of the cell plate(s). This is a 1:400 dilution of compound in the assay. • Once all cells are treated place the cells back to the incubator and incubate for 18 hours. • Dilute the capture antibody (total MCM2 #A300-122A) 1 in 250 in the required volume of PBS (5 mL per assay plate, plus 5 mL for dead volume) and add 50 μL to each well of a Hybond plate except wells A12 & B12. Seal the plate and incubate at room temperature fora minimum of 2 hours. • Defrost aliquot of Invitrogen Cell Extraction Buffer (FNN0011) on ice and supplement with appropriate volume of both Sigma protease inhibitor cocktail (P-2714) and PMSF (final cone 1 mM from a 1 M stock in DMSO). • After the 6 hour or 18 hour cell treatment time, tap out the media from the assay plates and place them in the −70° C. freezer for at least 5 minutes. • Flick out the remaining liquid in the previously prepared capture Ab plate(s) and add 200 μL 2% BSA per well. Incubate for 1 hour at room temperature. • Remove plates from freezer and add 20 μL of ice cold complete lysis buffer. Incubate cells for 30 minutes at 4° C. • Add 30 μL per well 2% BSA • At the end of the 1 hour incubation, wash the Capture/ELISA plate(s) with Wash Buffer on the BioTek plate washer. • Transfer 40 μL per well of the lysis plate(s) to the same wells in the Capture/ELISA plate. Incubate cells overnight at 4° C. • At the end of the overnight incubation, wash the ELISA plate(s) with Wash Buffer on BioTek plate washer. • Prepare Detection Antibody Buffer and dispense 50 μL to all wells of ELISA plate(s) except wells G1 & H1. Cover plate and incubate at room temperature for 2 hours with gentle shaking. • At the end of the 2 hour incubation, wash the ELISA plate(s) with Wash Buffer on the BioTek plate washer. • Prepare the Conjugated Antibody Buffer and dispense 50 μL to all wells of ELISA plate(s). • Cover the plate and incubate at room temperature for 1 hour with gentle shaking. • At the end of the 1 hour incubation, wash the ELISA plate(s) with Wash Buffer on the BioTek plate washer. • Prepare Substrate Buffer and dispense 50 μL to all wells of ELISA plate(s). • Incubate for a minimum of 10 minutes and read plates on the EnVision 2100 Multilabel Reader (Mirror: Luminescence (404) & Luminescence 700 (212); Measurement Height: 6.5 mm; Measurement Time: 0.2 s). Method 3

Cdc7/Dbf4, sequence (O00311 whole entry): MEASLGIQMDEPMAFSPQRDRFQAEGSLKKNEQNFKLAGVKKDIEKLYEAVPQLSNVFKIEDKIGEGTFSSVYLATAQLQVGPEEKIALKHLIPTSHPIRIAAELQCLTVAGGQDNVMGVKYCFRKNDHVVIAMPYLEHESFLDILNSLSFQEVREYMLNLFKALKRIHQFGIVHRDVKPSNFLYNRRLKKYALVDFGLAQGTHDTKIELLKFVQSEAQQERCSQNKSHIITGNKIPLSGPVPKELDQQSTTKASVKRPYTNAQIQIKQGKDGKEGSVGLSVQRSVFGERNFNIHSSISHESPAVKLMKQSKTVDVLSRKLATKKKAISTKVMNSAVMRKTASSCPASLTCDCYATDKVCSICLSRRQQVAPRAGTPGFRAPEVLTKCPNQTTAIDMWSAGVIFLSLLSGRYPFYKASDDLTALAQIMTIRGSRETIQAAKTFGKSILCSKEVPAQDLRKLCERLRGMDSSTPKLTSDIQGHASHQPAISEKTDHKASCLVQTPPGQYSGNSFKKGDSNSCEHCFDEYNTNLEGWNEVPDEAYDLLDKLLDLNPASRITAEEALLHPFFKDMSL
Cdc7/Dbf4, sequence (Q9UBU7 whole entry partner): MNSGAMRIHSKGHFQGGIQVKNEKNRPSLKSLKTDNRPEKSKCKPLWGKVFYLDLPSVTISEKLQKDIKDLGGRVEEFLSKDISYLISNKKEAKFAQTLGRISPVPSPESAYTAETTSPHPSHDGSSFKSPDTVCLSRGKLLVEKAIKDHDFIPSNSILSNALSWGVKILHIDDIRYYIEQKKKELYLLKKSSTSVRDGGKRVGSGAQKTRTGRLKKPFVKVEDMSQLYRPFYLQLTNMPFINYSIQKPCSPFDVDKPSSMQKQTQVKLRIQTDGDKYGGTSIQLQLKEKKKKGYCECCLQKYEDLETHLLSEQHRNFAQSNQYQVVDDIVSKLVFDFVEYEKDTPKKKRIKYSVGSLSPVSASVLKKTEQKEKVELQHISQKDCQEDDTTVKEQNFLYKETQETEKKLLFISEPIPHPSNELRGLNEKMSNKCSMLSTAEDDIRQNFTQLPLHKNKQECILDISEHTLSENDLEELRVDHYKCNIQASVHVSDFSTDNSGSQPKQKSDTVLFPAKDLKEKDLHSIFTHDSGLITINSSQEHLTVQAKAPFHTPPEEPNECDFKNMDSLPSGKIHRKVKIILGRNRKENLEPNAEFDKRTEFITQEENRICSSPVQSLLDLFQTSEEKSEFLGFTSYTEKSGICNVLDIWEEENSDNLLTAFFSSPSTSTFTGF
Cdc7/ASK, sequence (O00311 whole entry): as the sequence (O00311 whole entry) above
Cdc7/ASK, sequence (Q9UBU7 whole entry partner): as the sequence (Q9UBU7 whole entry partner) above
T1 sequence (O00311 whole entry): as the sequence (O00311 whole entry) above
T1 sequence (Q9UBU7 whole entry partner): as the sequence (Q9UBU7 whole entry partner) above

C[C@@H]1COCCN1c1nc(-c2cnn3ccccc23)[nH]c(=O)c1Cl [Compound 54, 5-chloro-4-[(3R)-3-methylmorpholin-4-yl]-2-pyrazolo[1,5-a]pyridin-3-yl-1H-pyrimidin-6-one]
IC50 (Cdc7/Dbf4): 72.4 nM

Cc1[nH]ncc1-c1nc(C2CCOCC2)c(Cl)c(=O)[nH]1 [Compound 16, 5-chloro-2-(3-methyl-1H-pyrazol-4-yl)-4-tetrahydropyran-4-yl-1H-pyrimidin-6-one]
IC50 (Cdc7/ASK): 2.75 nM | IC50 (Cdc7/Dbf4): 7.24 nM

Cc1ncsc1-c1nc(N2CCN[C@@H](C(C)C)C2)c(Cl)c(=O)[nH]1 [Compound 39, 5-chloro-4-[(3S)-3-isopropylpiperazin-1-yl]-2-(4-methylthiazol-5-yl)-1H-pyrimidin-6-one]
IC50 (Cdc7/ASK): 21.4 nM | EC50 (Cdc7 [1]): 339 nM | IC50 (Cdc7/Dbf4): 7.41 nM

Cc1[nH]ncc1-c1nc(N2CCOCC2)c(Cl)c(=O)[nH]1 [Compound 51, 5-chloro-2-(5-methyl-1H-pyrazol-4-yl)-4-morpholino-1H-pyrimidin-6-one]
IC50 (Cdc7/Dbf4): 5.89 nM

CC1CNCCN1c1nc(-c2c[nH]c3ncccc23)[nH]c(=O)c1Cl (stereo in doubt) [Compound 55, 5-chloro-4-[(2R)-2-methylpiperazin-1-yl]-2-(1H-pyrrolo[2,3-b]pyridin-3-yl)-1H-pyrimidin-6-one 2,2,2-trifluoroacetic acid]
EC50 (Cdc7 [2]): 100 nM
